Earlier results on 1 compound are cited in patent publication US20050118256A1, “Extended release alpha-2 agonist pharmaceutical dosage forms” (priority 2003, published 2005).

Molecules are shown by their SMILES. Where a name gives a salt, the structure may show the parent alone.

This data set deals with skeletal muscle fibers, neuromuscular junction, spinal reflexes. The following applies: animal models.

For `Clc1ccc2nsnc2c1NC1=NCCN1` [Tizanidine, 5-chloro-4-(2-imidazolin-2-ylamino)-2,1,3-benzothiodiazole hydrochloride], the “effect on monosynaptic spinal reflexes” value was “no major effect” and the “effect on skeletal muscle fibers or the neuromuscular junction” value is recorded as “no direct effect”.
